Relative viability data for five cell lines are collected here from the supplement of paper PMC10307832.

Holding throughout (experiment): relative viability (nuclei count vs DMSO), 5 days (fraction); higher = more cells survive
Compound in the test “ALW-II-49-7 + Dasatinib”: Cc1ccc(C(=O)Nc2cccc(C(F)(F)F)c2)cc1Nc1cncc(C(N)=O)c1 [ALW-II-49-7] + Cc1nc(Nc2ncc(C(=O)Nc3c(C)cccc3Cl)s2)cc(N2CCN(CCO)CC2)n1 [Dasatinib] (partner 0.075 µM)
A digest of the protocol:
(§1)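 Relative viability divides the nuclei count in treated wells by that in vehicle wells. Lung cancer cell lines were seeded in 1536-well plates, dosed by pin tool the next day, and fixed and stained after 5 days in one step with final 0.05% Triton X-100, 1% formaldehyde and 1 ug/ml Hoechst. Dosing was a single drug or a fixed anchor-drug dose plus five library-drug doses (not always all listed) in √10 steps, and values are medians of duplicate plates imaged at 4×.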

Compound in the test “ALW-II-49-7 + Navitoclax”: Cc1ccc(C(=O)Nc2cccc(C(F)(F)F)c2)cc1Nc1cncc(C(N)=O)c1 [ALW-II-49-7] + CC1(C)CCC(c2ccc(Cl)cc2)=C(CN2CCN(c3ccc(C(=O)NS(=O)(=O)c4ccc(N[C@H](CCN5CCOCC5)CSc5ccccc5)c(S(=O)(=O)C(F)(F)F)c4)cc3)CC2)C1 [Navitoclax] (partner 0.5 µM)
A digest of the protocol:
as §1

Compound in the test “XMD13-2 + Olaparib”: C1CC1C(=O)NC2=NNC3=C2C=CC(=C3)C4=CC(=CC=C4)C(=O)NC5CC5 [XMD13-2] + O=C(c1cc(Cc2n[nH]c(=O)c3ccccc23)ccc1F)N1CCN(C(=O)C2CC2)CC1 [Olaparib] (partner 8 µM)
An outline of the steps:
as §1

Compound in the test “XMD13-2 + Pemetrexed”: C1CC1C(=O)NC2=NNC3=C2C=CC(=C3)C4=CC(=CC=C4)C(=O)NC5CC5 [XMD13-2] + Nc1nc2[nH]cc(CCc3ccc(C(=O)N[C@@H](CCC(=O)O)C(=O)O)cc3)c2c(=O)[nH]1 [Pemetrexed] (partner 0.2 µM)
A digest of the protocol:
as §1

For LK-2, the relative viability with ALW-II-49-7 + Dasatinib (first compound 0.253 µM) came to 0.271; with ALW-II-49-7 + Dasatinib (first compound 0.8 µM), 0.252; with ALW-II-49-7 + Dasatinib (first compound 2.53 µM), 0.31; in the test with ALW-II-49-7 + Dasatinib (first compound 8 µM), 0.336; with ALW-II-49-7 + Navitoclax (first compound 0.08 µM) it was 0.887; with ALW-II-49-7 + Navitoclax (first compound 0.253 µM), 0.802. Further, the relative viability turned out to be 0.945 with ALW-II-49-7 + Navitoclax (first compound 0.8 µM); 0.745 with ALW-II-49-7 + Navitoclax (first compound 8 µM); 0.831 in the test with XMD13-2 + Olaparib (first compound 0.05 µM); 0.911 with XMD13-2 + Olaparib (first compound 0.1581 µM); 0.807 with XMD13-2 + Olaparib (first compound 0.5 µM); 0.642 with XMD13-2 + Olaparib (first compound 1.581 µM). For the same cell line, the relative viability amounted to 0.668 in the test with XMD13-2 + Olaparib (first compound 5 µM); 0.297 with XMD13-2 + Pemetrexed (first compound 0.05 µM); 0.284 with XMD13-2 + Pemetrexed (first compound 0.1581 µM); 0.266 with XMD13-2 + Pemetrexed (first compound 0.5 µM); 0.291 in the test with XMD13-2 + Pemetrexed (first compound 1.581 µM); 0.393 with XMD13-2 + Pemetrexed (first compound 5 µM).

Regarding EKVX, the relative viability with ALW-II-49-7 + Dasatinib (first compound 0.08 µM) stood at 0.382; with ALW-II-49-7 + Dasatinib (first compound 0.253 µM) it was 0.481; in the test with ALW-II-49-7 + Dasatinib (first compound 0.8 µM) it was 0.546; with ALW-II-49-7 + Dasatinib (first compound 2.53 µM) it was 0.425; with ALW-II-49-7 + Dasatinib (first compound 8 µM), 0.454; with ALW-II-49-7 + Navitoclax (first compound 0.08 µM), 0.942. Besides, the relative viability in the test with ALW-II-49-7 + Navitoclax (first compound 0.253 µM) was 0.888; in the test with ALW-II-49-7 + Navitoclax (first compound 0.8 µM), 0.832; with ALW-II-49-7 + Navitoclax (first compound 2.53 µM), 0.502; in the test with ALW-II-49-7 + Navitoclax (first compound 8 µM) it was 1.08; in the test with XMD13-2 + Olaparib (first compound 0.05 µM) it was 0.984; with XMD13-2 + Olaparib (first compound 0.1581 µM) it was 0.871. Also, the relative viability with XMD13-2 + Olaparib (first compound 0.5 µM) came to 0.907; with XMD13-2 + Olaparib (first compound 5 µM) it was 0.907; with XMD13-2 + Pemetrexed (first compound 0.05 µM) it was 0.457; in the test with XMD13-2 + Pemetrexed (first compound 0.1581 µM), 0.324; with XMD13-2 + Pemetrexed (first compound 0.5 µM) it was 0.432; in the test with XMD13-2 + Pemetrexed (first compound 5 µM), 0.428.

On to NCI-H2009, for which the relative viability with ALW-II-49-7 + Dasatinib (first compound 0.08 µM) worked out at 0.284; in the test with ALW-II-49-7 + Dasatinib (first compound 0.253 µM), 0.29; with ALW-II-49-7 + Dasatinib (first compound 0.8 µM) it was 0.289; with ALW-II-49-7 + Dasatinib (first compound 2.53 µM), 0.264; with ALW-II-49-7 + Dasatinib (first compound 8 µM), 0.252; with ALW-II-49-7 + Navitoclax (first compound 0.08 µM), 1.1. Further, the relative viability with ALW-II-49-7 + Navitoclax (first compound 0.253 µM) amounted to 1.16; in the test with ALW-II-49-7 + Navitoclax (first compound 0.8 µM), 1.12; with ALW-II-49-7 + Navitoclax (first compound 2.53 µM), 0.904; with ALW-II-49-7 + Navitoclax (first compound 8 µM), 0.983; with XMD13-2 + Olaparib (first compound 0.05 µM), 0.663; in the test with XMD13-2 + Olaparib (first compound 0.1581 µM), 0.685. Besides, the relative viability with XMD13-2 + Olaparib (first compound 0.5 µM) amounted to 0.727; in the test with XMD13-2 + Olaparib (first compound 1.581 µM), 0.673; in the test with XMD13-2 + Olaparib (first compound 5 µM) it was 0.745; with XMD13-2 + Pemetrexed (first compound 0.05 µM) it was 1.01; with XMD13-2 + Pemetrexed (first compound 0.1581 µM) it was 1.1; in the test with XMD13-2 + Pemetrexed (first compound 0.5 µM) it was 1.01. In addition, the relative viability in the test with XMD13-2 + Pemetrexed (first compound 1.581 µM) was 1.01; with XMD13-2 + Pemetrexed (first compound 5 µM), 1.07.

Consider NCI-H838, for which the relative viability with ALW-II-49-7 + Dasatinib (first compound 0.08 µM) is 0.395; with ALW-II-49-7 + Dasatinib (first compound 0.253 µM), 0.34; in the test with ALW-II-49-7 + Dasatinib (first compound 0.8 µM), 0.294; with ALW-II-49-7 + Dasatinib (first compound 2.53 µM), 0.257; with ALW-II-49-7 + Dasatinib (first compound 8 µM), 0.255; in the test with ALW-II-49-7 + Navitoclax (first compound 0.08 µM), 1.12. Moreover, the relative viability in the test with ALW-II-49-7 + Navitoclax (first compound 0.253 µM) stood at 1.42; in the test with ALW-II-49-7 + Navitoclax (first compound 0.8 µM), 1.17; with ALW-II-49-7 + Navitoclax (first compound 2.53 µM), 1.14; with ALW-II-49-7 + Navitoclax (first compound 8 µM), 1.17; in the test with XMD13-2 + Olaparib (first compound 0.05 µM), 0.865; in the test with XMD13-2 + Olaparib (first compound 0.1581 µM), 0.749. Further, the relative viability with XMD13-2 + Olaparib (first compound 0.5 µM) was 0.817; in the test with XMD13-2 + Olaparib (first compound 1.581 µM), 0.774; with XMD13-2 + Olaparib (first compound 5 µM), 0.699; in the test with XMD13-2 + Pemetrexed (first compound 0.05 µM) it was 0.249; with XMD13-2 + Pemetrexed (first compound 0.1581 µM), 0.226; with XMD13-2 + Pemetrexed (first compound 0.5 µM), 0.263. Besides, the relative viability in the test with XMD13-2 + Pemetrexed (first compound 1.581 µM) was found to be 0.251; in the test with XMD13-2 + Pemetrexed (first compound 5 µM), 0.254.

Take NCI-H2085: the relative viability was 0.236 with ALW-II-49-7 + Dasatinib (first compound 0.08 µM); 0.168 with ALW-II-49-7 + Dasatinib (first compound 0.253 µM); 0.239 in the test with ALW-II-49-7 + Dasatinib (first compound 0.8 µM); 0.215 with ALW-II-49-7 + Dasatinib (first compound 2.53 µM); 0.213 with ALW-II-49-7 + Dasatinib (first compound 8 µM); 1.13 in the test with ALW-II-49-7 + Navitoclax (first compound 0.08 µM). Moreover, the relative viability in the test with ALW-II-49-7 + Navitoclax (first compound 0.253 µM) was found to be 1.15; with ALW-II-49-7 + Navitoclax (first compound 0.8 µM) it was 1.14; in the test with ALW-II-49-7 + Navitoclax (first compound 2.53 µM), 1.18; with ALW-II-49-7 + Navitoclax (first compound 8 µM) it was 1.08; with XMD13-2 + Olaparib (first compound 0.05 µM), 0.771; in the test with XMD13-2 + Olaparib (first compound 0.1581 µM) it was 0.695. Further, the relative viability with XMD13-2 + Olaparib (first compound 0.5 µM) turned out to be 0.805; with XMD13-2 + Olaparib (first compound 1.581 µM), 0.728; with XMD13-2 + Olaparib (first compound 5 µM), 0.768; in the test with XMD13-2 + Pemetrexed (first compound 0.05 µM), 0.959; with XMD13-2 + Pemetrexed (first compound 0.1581 µM) it was 0.838; in the test with XMD13-2 + Pemetrexed (first compound 0.5 µM), 0.977. The relative viability turned out to be 0.789 with XMD13-2 + Pemetrexed (first compound 1.581 µM) and 1.03 with XMD13-2 + Pemetrexed (first compound 5 µM).
